We go through five compounds from publication PMC4772728 (Drug development and industrial pharmacy, 2013).

Converted amounts (≈) assume the structure as drawn. “And” between values parts separate entries of the source, which are not always exact repeats. Identical values can stand only once. Marks after values point to notes of the source that are not given here. Bounds are passed on as bounds.

Data set [1] in a line: Stratum corneum/water partition coefficient determination. Format: physicochemical, human.
Data set [2] in a line: Solubility determination. It counts as physicochemical. Particulars: for solubility: thermodynamic from solid.
The conditions of data set [3]: cited from earlier work.
Data set [4] can be described thus: Octanol/water partition coefficient determination. Format: physicochemical.
For data set [5] the following is noted: PBS pH 7.4 with 30% DMSO, 37 °C, pseudo first order.
For data set [6] the following is noted: fresh rat plasma, 37 °C.
For data set [7] the following is noted: pH 7.4.
Where [8] appears, read: stratum corneum / 5% propylene glycol in water, 24 hrs.

On to `O=C(O)Cc1ccccc1Nc1c(Cl)cccc1Cl` [DA, Diclofenac Acid, reference compound], for which the “Partition coefficient (LogK SC/ 5% PG water)” value in data set [1] (water substituted with 0.02 M phosphate buffer at pH 2.5, 24 hrs) is reported as 2.97^a. For the same compound, the solubility in data set [2] (organic solvent or mixture, Solubility in IPM) turned out to be 12600 µM (≈ 3730 µg/mL); in data set [2] (pH 2.5, aqueous buffer, Solubility in water), 3.4 µM (≈ 1.01 µg/mL). In addition, the octanol/water partition coefficient in data set [3] (ref Drug Bank website) is recorded as 4.9. In data set [4] (octanol/0.02 M phosphate buffer pH 2.5, pH 2.5), this compound returned a logP at 24 h of 4.57.
For the compound `COC(=O)Cc1ccccc1Nc1c(Cl)cccc1Cl` [MD, Methanol Diclofenac Ester], the “Hydrolysis in PBS (half life in hours)” value in data set [5] turned out to be 34.6 h. Besides, the “Partition coefficient (LogK SC/ 5% PG water)” value in data set [1] (setting [8]) stood at 3.56. Moreover, in data set [2], the “Solubility in 5% PG water” value amounted to 1.9 µM (≈ 0.589 µg/mL), the “Solubility in Hexane” value was 21000 µM (≈ 6510 µg/mL), the “Solubility in IPM” value was 43000 µM (≈ 13300 µg/mL) and the Solubility in water was determined as 1.9 µM (≈ 0.589 µg/mL). Moreover, the “Decrease of solubility in water relative to unionized DA” value in data set [2] (pH 2.5) was “more than 2 folds”. Moreover, in data set [4], the “Partition coefficient (LogP octanol/water)” value worked out at 5.00.
Turning to `O=C(Cc1ccccc1Nc1c(Cl)cccc1Cl)OCCCO` [PD, 1,3 Propylene Glycol Diclofenac Ester], the “Hydrolysis in PBS (half life in hours)” value in data set [5] is 63.9 h. In addition, the “Partition coefficient (LogK SC/ 5% PG water)” value in data set [1] (setting [8]) is reported as 2.58. For the same compound, in data set [2], the “Solubility in 5% PG water” value amounted to 4.8 µM (≈ 1.7 µg/mL), the “Solubility in Hexane” value is 2220 µM (≈ 786 µg/mL), the “Solubility in IPM” value amounted to 13600 µM (≈ 4820 µg/mL) and the Solubility in water turned out to be 3.3 µM (≈ 1.17 µg/mL). The “Bioconversion in plasma (half life in min)” value in data set [6] is 2.4 min and 2.41 min. For the same compound, the “Partition coefficient (LogP octanol/water)” value in data set [4] is 4.08. In addition, the “Aqueous solution flux (steady state, across HEM)” value in data set [7] is 0.84(0.25) nmol·cm^−2·hr^−1.
For `O=C(c1ccccc1)c1ccc2n1CCC2C(=O)O` (stereo not drawn) [ketorolac], the LogPO/W entry in data set [3] is given as “around 1”.
As to Glycerol Diclofenac Ester [GD], in data set [2], the “Solubility in 5% PG water” value came to 662 µM, the “Solubility in Hexane” value is 386 µM, the “Solubility in IPM” value was found to be 69700 µM and the Solubility in water was found to be 551 µM. The “Increase of solubility in purified water relative to unionized DA” value in data set [2] (pH 2.5) is > 100 fold. Also, in data set [4], the “Partition coefficient (LogP octanol/water)” value came to 3.30. In addition, the “Aqueous solution flux (steady state, across HEM)” value in data set [7] is reported as 5.54(0.78) nmol·cm^−2·hr^−1.

Usually solubility stands for the dissolved amount per volume that the medium holds. The logP is a log measure of how a compound divides between an organic and an aqueous phase.
